How the values were obtained:
Conditions in all cases: 72 h
Caco-2 [1] = assay: drug sensitivity score (DSS) for viability; higher = more toxic; extreme values may be limits of the assay
Calu-3 [2] = assay: as above
U2OS [3] = assay: as above
HepG2 [4] = assay: as above
Vero E6 [5] = assay: as above
Caco-2 [6] = assay: cell viability relative to DMSO; higher = less toxic
Calu-3 [7] = assay: as above
U2OS [8] = assay: as above
HepG2 [9] = assay: as above
Vero E6 [10] = assay: as above
Caco-2 [11] = assay: relative viability EC50 (midpoint between 100% and the lowest measured viability); higher = less toxic
Calu-3 [12] = assay: as above
U2OS [13] = assay: as above
HepG2 [14] = assay: as above
Vero E6 [15] = assay: as above

| Structure (SMILES) | drug sensitivity score (Caco-2 [1]) | drug sensitivity score (Calu-3 [2]) | drug sensitivity score (U2OS [3]) | drug sensitivity score (HepG2 [4]) | drug sensitivity score (Vero E6 [5]) | cell viability (Caco-2 [6]; 1 nM) | cell viability (Caco-2 [6]; 10 nM) | cell viability (Caco-2 [6]; 100 nM) | cell viability (Caco-2 [6]; 1000 nM) | cell viability (Caco-2 [6]; 10000 nM) | cell viability (Calu-3 [7]; 1 nM) | cell viability (Calu-3 [7]; 10 nM) | cell viability (Calu-3 [7]; 100 nM) | cell viability (Calu-3 [7]; 1000 nM) | cell viability (Calu-3 [7]; 10000 nM) | cell viability (U2OS [8]; 1 nM) | cell viability (U2OS [8]; 10 nM) | cell viability (U2OS [8]; 100 nM) | cell viability (U2OS [8]; 1000 nM) | cell viability (U2OS [8]; 10000 nM) | cell viability (HepG2 [9]; 1 nM) | cell viability (HepG2 [9]; 10 nM) | cell viability (HepG2 [9]; 100 nM) | cell viability (HepG2 [9]; 1000 nM) | cell viability (HepG2 [9]; 10000 nM) | cell viability (Vero E6 [10]; 1 nM) | cell viability (Vero E6 [10]; 10 nM) | cell viability (Vero E6 [10]; 100 nM) | cell viability (Vero E6 [10]; 1000 nM) | cell viability (Vero E6 [10]; 10000 nM) | relative viability EC50 (Caco-2 [11]) | relative viability EC50 (Calu-3 [12]) | relative viability EC50 (U2OS [13]) | relative viability EC50 (HepG2 [14]) | relative viability EC50 (Vero E6 [15]) |
| --- | --- | --- | --- | --- | --- | --- | --- | --- | --- | --- | --- | --- | --- | --- | --- | --- | --- | --- | --- | --- | --- | --- | --- | --- | --- | --- | --- | --- | --- | --- | --- | --- | --- | --- | --- |
| OC[C@@H](O)[C@@H](O[C@@H]1O[C@H](CO)[C@H](O)[C@H](O)[C@H]1O)[C@H](O)[C@@H](O)CO [D-LACTITOL MONOHYDRATE] | 0 | 0 | 0 | 0 | 0 | 92.3% | 92.3% | 98.6% | 103% | 97.2% | 106% | 94.9% | 99.6% | 96.3% | 93.5% | 101% | 96.9% | 95.6% | 99.8% | 103% | 94% | 105% | 96.2% | 89.2% | 97.4% | 100% | 98.6% | 95.4% | 92.8% | 99.3% | > 10 µM | > 10 µM | > 10 µM | > 10 µM | > 10 µM |
| CCCN(CCC)S(=O)(=O)c1ccc(C(=O)O)cc1 [probenecid] | 0 | 0 | 0 | 0 | 0 | 95.8% | 97.6% | 88.8% | 104% | 93.3% | 88.3% | 106% | 102% | 118% | 91.3% | 97.5% | 97.5% | 95.2% | 99.1% | 95.9% | 105% | 91.6% | 97% | 95.4% | 109% | 102% | 104% | 103% | 99.3% | 99.6% | > 10 µM | > 10 µM | > 10 µM | > 10 µM | > 10 µM |
| O=C(O)c1nc(=O)[nH]c(=O)[nH]1 [oxonic-acid] | 0 | 0 | 0 | 0 | 0 | 87.9% | 76.3% | 89.9% | 112% | 101% | 94.6% | 106% | 105% | 110% | 108% | 102% | 101% | 99.6% | 102% | 106% | 105% | 103% | 97.4% | 115% | 101% | 89.2% | 63.8% | 98.5% | 79.8% | 90.7% | > 10 µM | > 10 µM | > 10 µM | > 10 µM | > 10 µM |
| CN(C)C/C=C/C(=O)Nc1cc2c(Nc3ccc(F)c(Cl)c3)ncnc2cc1O[C@H]1CCOC1 [afatinib] | 7.2 | 27.9 | 6.2 | 5 | 14.2 | 109% | 90.4% | 83% | 73.4% | 46.1% | 88.7% | 57.8% | 32.1% | 28.8% | 9.1% | 95.8% | 100% | 93.2% | 91.1% | 13.6% | 117% | 96.1% | 104% | 93.7% | 27.6% | 101% | 93.7% | 66% | 51.7% | 3.8% | 0.496 µM | 0.0181 µM | 2.32 µM | 2.45 µM | 0.465 µM |
| O=C(O)CCNC(=O)c1ccccc1 [betamipron] | 0 | 0 | 0 | 0 | 0 | 90.2% | 95.6% | 99.7% | 100% | 103% | 108% | 90.6% | 113% | 104% | 116% | 102% | 98% | 101% | 92.5% | 99.4% | 94.8% | 111% | 95.9% | 114% | 105% | 94.6% | 96.4% | 95.6% | 92.2% | 96.2% | > 10 µM | > 10 µM | > 10 µM | > 10 µM | > 10 µM |
| CCOc1nc2cccc(C(=O)O)c2n1Cc1ccc(-c2ccccc2-c2nnn[nH]2)cc1 [candesartan] | 0 | 0 | 0 | 0 | 0 | 104% | 97.5% | 106% | 90.1% | 92.5% | 91.1% | 95.7% | 100% | 99.7% | 105% | 94.2% | 96.8% | 94.4% | 99.3% | 102% | 103% | 100% | 106% | 98% | 94.5% | 102% | 97.6% | 95.3% | 92.7% | 108% | > 10 µM | > 10 µM | > 10 µM | > 10 µM | > 10 µM |
| CCCc1ncc(C[n+]2ccccc2C)c(N)n1 [amprolium] | 0.9 | 0 | 0 | 0 | 0 | 112% | 94.9% | 88.5% | 90.5% | 99.9% | 104% | 97.2% | 99.5% | 101% | 107% | 101% | 97.2% | 102% | 100% | 104% | 96.4% | 103% | 89.2% | 97.1% | 92.1% | 100% | 108% | 92.8% | 112% | 102% | > 10 µM | > 10 µM | > 10 µM | > 10 µM | > 10 µM |
| C[C@H](N)Cc1cccc(O)c1 [gepefrine] | 0 | 0 | 0 | 0 | 0 | 91.3% | 104% | 88% | 99.1% | 111% | 93.4% | 100% | 102% | 99.7% | 88.7% | 88% | 93.9% | 90.3% | 95% | 103% | 103% | 97.2% | 96.8% | 104% | 109% | 99.7% | 96% | 98.1% | 101% | 111% | > 10 µM | > 10 µM | > 10 µM | > 10 µM | > 10 µM |
| CC(C)CN(C[C@@H](O)[C@H](Cc1ccccc1)NC(=O)O[C@H]1CCOC1)S(=O)(=O)c1ccc(N)cc1 [amprenavir] | 0.6 | 0 | 0 | 0 | 0 | 103% | 100% | 106% | 87.2% | 87.7% | 101% | 102% | 99.3% | 97.7% | 107% | 106% | 97.8% | 96.5% | 98.6% | 101% | 114% | 88.9% | 92.7% | 96.5% | 87.7% | 110% | 102% | 93.9% | 101% | 93.4% | > 10 µM | > 10 µM | > 10 µM | > 10 µM | > 10 µM |
| NC(=O)c1ncn([C@@H]2O[C@H](CO)[C@@H](O)[C@H]2O)c1O [mizoribine] | 0 | 0 | 0 | 0 | 0 | 93.8% | 97.7% | 94.7% | 97.1% | 97.6% | 104% | 101% | 95.3% | 102% | 88.4% | 101% | 103% | 99.6% | 96.3% | 99.1% | 112% | 100% | 110% | 96.2% | 106% | 101% | 103% | 99.1% | 97.8% | 101% | > 10 µM | > 10 µM | > 10 µM | > 10 µM | > 10 µM |
| N#C/C(=C1/SCC(c2ccccc2Cl)S1)n1ccnc1 (stereo not given) [lanoconazole] | 0 | 0 | 0 | 0.8 | 0 | 96.6% | 106% | 99.7% | 101% | 102% | 96.9% | 103% | 103% | 108% | 86.6% | 99.1% | 99.9% | 97.4% | 96.8% | 89.8% | 93.3% | 95.5% | 99.9% | 97.6% | 81.6% | 100% | 99.1% | 95.2% | 92.5% | 94.9% | > 10 µM | > 10 µM | > 10 µM | > 10 µM | > 10 µM |
| COC(=O)C[C@H]1CC(c2ccc(O)cc2)=NO1 [ISO-1] | 0 | 0 | 0 | 0 | 0 | 102% | 103% | 96.9% | 93.5% | 109% | 100% | 109% | 104% | 99.5% | 109% | 95.2% | 98.9% | 96.1% | 106% | 96.8% | 104% | 102% | 102% | 103% | 94.6% | 106% | 99.7% | 97.1% | 101% | 98.5% | > 10 µM | > 10 µM | > 10 µM | > 10 µM | > 10 µM |
| COc1nc(C)cnc1NS(=O)(=O)c1cccnc1-c1ccc(-c2nnco2)cc1 [zibotentan] | 0 | 0 | 0 | 0 | 0 | 104% | 95.2% | 94.9% | 101% | 94.9% | 105% | 102% | 98.9% | 104% | 111% | 95.7% | 99.4% | 97.7% | 103% | 105% | 99.8% | 98% | 102% | 101% | 107% | 102% | 96.5% | 94.4% | 99.3% | 102% | > 10 µM | > 10 µM | > 10 µM | > 10 µM | > 10 µM |
| O=C(O)Cc1ccc(CCNS(=O)(=O)c2ccc(Cl)cc2)cc1 [daltroban] | 0 | 0 | 0 | 0 | 0 | 104% | 104% | 94.2% | 94.1% | 94.7% | 101% | 95.3% | 102% | 116% | 105% | 102% | 95.3% | 99.2% | 96.1% | 99.9% | 95% | 90.9% | 99.8% | 104% | 95.7% | 109% | 98.4% | 109% | 107% | 89.5% | > 10 µM | > 10 µM | > 10 µM | > 10 µM | > 10 µM |

Reference: the supplement of paper PMC13380429
